Peptide text beside a SMILES is read from it.
How the values were obtained:
[1] = test system: T cells (senescent CD3+ CD4+ CD27− CD28− population); conditions: DOS-FITC 10 μM, 4 hrs
Experimental: (A-B) CD4+ T cells were isolated from peripheral blood mononuclear cells (PBMCs) from healthy donors and treated with DOS compounds. (A) Representative confocal images of CD4+ T cells stained with DOS-FITC and CD3-AF594. (B) Quantification of DOS46L penetration by flow cytometry in CD4+ CD27-CD28-cells (Tsen) and in CD4+CD27+CD28+ (Terl).
Purified T cells were plated at the concentration 1*10^6 cell/well in 24 well plate • 2. Cells were treated with 10 μM of DOS-FITC for 4 hrs • 3. Then collected and centrifuged at 500 g for 5 mins • 4. Washed two times with ice-cold PBS • 5. Cells were resuspended in 200 ul of PBS and plated in a pre-treated coverslip with poly-lysine • 6. Cells were fixed with 4% of formaldehyde in ice for 20 mins • 7. Washed three times with PBS • 8. Blocked with PBS-BSA 5% • 9. Cells were then incubated with primary antibody (anti-CD3 1:100) overnight at 4 C • 10. Washed three times with PBS • 11. Then incubated with secondary antibody (anti-mouse conjugated with AF-594; 1:250) for 1 hr at room temperature • 12. Washed three times with PBS 13. Cells were permeabilized with Triton 0.25% in PBS for 2 mins • 14. Followed incubation with antibody anti-KDEL (Abcam) and anti-sestrin 2 (Gentex) diluted 1:100 at 4 C over-night • 15. Washed for three times with PBS • 16. […]

[2] = test system: sestrin mRNA; assay: Sestrin mRNA expression in spleens of DOS treated old mice (qPCR); assay type: in vivo; conditions: single dose, from day ten
Experimental: FIG. 13 illustrates the level of Sestrin in DOS-treated murine blood and tissues. (A-B) Old mice were inoculated subcutaneously with DOS46L compound (0.1 mg/kg or 1 mg/kg). Blood was withdrawn at 0, 48, 72 hours and 8 weeks after the inoculation. Pharmacodynamics of Sestrin 2 were analysed by FACS in CD4+ T cell population. […] Untreated age-matched controls are shown. (D) 72 hr after DOS treatment, mice were sacrificed and old tissues were collected to analyse Sestrin levels in different organs by immunoblotting. **p<0.01, *p<0.05.
• 1. Transduced cells were collected • 2. Cell suspension was centrifugated and the cell pellet resuspended in warm PBS with 5 μM of CTV • 3. Followed an incubation of 10 min at 37° C. • 4. Cold PBS was added and cells were centrifugated • 5. Cells were then resuspended in medium and counted • 6. An aliquot of these cells were checked by FACS • 7. Cells were then stimulated with DOS in 200 μL and left for 12 days in culture RNA Extraction, Retro-Transcription and qPCR • 1. CD4+ cells were purified from mouse spleen using appropriate microbeads (Miltenyi) • 2. Total RNA from CD4+ cells was extracted using the “PureLink RNA Mini Kit” (Invitrogen). • 3. RNA concentration was acquired by NANO-DROP spectrophotometer (Thermo-Scientific). • 4. […]

[3] = test system: H1N1 PR8/54; parameters: species or system mice; conditions: mouse, in vivo
[4] = test system: influenza specific antibody titres; assay type: in vivo; conditions: old mice, single dose along with the vaccine, 2, 4 and 8 weeks after vaccination, versus young mice
[5] = test system: sMAC activation (Sestrin 2, p-p38); assay: Titration of DOS46L in senescent CD4+ CD27− CD28− T cells, immunoblot; assay type: cell-based, human; conditions: within 4 hours of treatment
Experimental: FIG. 7 illustrates titration of DOS46L. (A-B) CD4+ CD27− CD28− T cells were isolated from PBMCs from healthy donors and treated with increasing doses of DOS46L compound for 4 hours and harvested for immunoblot analysis. (A) Levels of Sestrin 2, p-p38 and H2B were evaluated by immunoblot. (B) Quantification of Sestrin 2 was analysed with Histone 3 as a loading control. Represented are the mean values±SEM of at least three independent experiments. Values are compared using One-Way ANOVA test followed by Tukey's post hoc test. (C-D) CD4+ CD27−CD28− T cells were treated with DOS46L compound (10 uM) for 0.5, 1, 2 and 4 hours and harvested for immunoblot analysis at indicated time points. (C) Levels of Sestrin 1, Sestrin 2, and Sestrin 3 were evaluated by immunoblot. Histone 3 was used as a loading control. (D) Quantification of Sestrin 1, Sestrin 2 and Sestrin 3, with Histone 3 as a loading control. Represented are the mean values±SEM of at least four independent experiments. Values are compared using One-Way ANOVA test followed by Tukey's post hoc test or Student's T-test. *p<0.05, **p<0.01
• 1. CD4+ cells were separated from PBMC using appropriate microbeads kit (Miltenyi) • 2. Cells were resuspended in whole RPMI medium and plated in the 24-multiwell plate • 3. Then activated for 4 hrs with DOS compounds • 4. […]

Compound: CC[C@H](C)[C@@H]1NC(=O)[C@H](Cc2ccccc2)NC(=O)[C@H](C)NC(=O)[C@H](C(C)C)NC(=O)[C@@H]2CCCN2C1=O [DOS46L] (cyclo(AFIPV))
- cell penetration [1]: able to penetrate T cells
- sestrin mRNA expression [2]: Long term mRNA silencing of sestrin expression
- protection from lethal viral challenge without vaccine [3]: prevented death
- influenza specific antibody titres [4]: completely restored
- concentration from which sMAC activation is suppressed [5]: 16 nM

Reference: patent publication US20250066423A1, “SESTRIN-MAPK COMPLEX INHIBITORS” (Sentcell Ltd, priority 2021, published 2025)
